Measurements as given in ChEMBL document CHEMBL5126499, “Small molecule therapeutics for tauopathy in Alzheimer's disease: Walking on the path of most resistance” (Eur J Med Chem, 2021).
Blank lines part the entries; values can stand above or below the molecule they belong to.

What was measured:
[1] = Inhibition of HSP70 in human HeLa C3 cells overexpressing tau protein assessed as reduction in tau protein level measured after 24 hrs by Western blot analysis; format: cell-based; conditions: HeLa C3, 24 h
[2] = Inhibition of human HSP70 ATPase activity at incubated for 3 hrs by malachite green reagent based HTS analysis
Homo sapiens = species: Homo sapiens; assay: Inhibition of human HSP70 ATPase activity at 10 uM incubated for 3 hrs by malachite green reagent based HTS analysis relative to control
[3] = Induction of SirT2 production in mouse N2a cells transfected with ApoE4 assessed as increase in SirT2 levels by sandwich ELISA; format: functional, cell-based
Drosophila = assay: Inhibition of tau protein accumulation in Drosophila larvae eye assessed as reduction in tau protein level at 0.75 mg/ml dripped every other day by immunohistochemistry; format: functional
SK-N-BE(2)-M17 = assay: Inhibition of HSP70 in human SK-N-BE(2)-M17 cells overexpressing tau protein assessed as reduction in tau protein level at 0.025 to 9 uM measured after 24 hrs by Western blot analysis relative to control; format: cell-based; conditions: dose 0.025-9 µM
HeLa C3 = assay: Inhibition of HSP70 in human HeLa C3 cells overexpressing tau protein assessed as reduction in tau protein level at 0.025 to 9 uM measured after 24 hrs by Western blot analysis relative to control; format: cell-based; conditions: dose 0.025-9 µM
[4] = Inhibition of HSP70 in human SK-N-BE(2)-M17 cells overexpressing tau protein assessed as reduction in tau protein level measured after 24 hrs by Western blot analysis; format: cell-based; conditions: SK-N-BE(2)-M17, 24 h
[5] = Cmax in mouse brain at 10 mg/kg, ip; format: ADME, organism-based; set-up: dose 10 mg/kg, route ip; conditions: in vivo
[6] = Tmax in mouse brain at 10 mg/kg, ip; format: ADME, organism-based
[7] = Reduction of tau protein level in human HeLa C3 cells transfected with human 4R0N tau at 30 uM incubated for 24 hrs by Western blot analysis relative to control; format: functional; set-up: scale not given: the % may be the effect or the level left

Structure (SMILES): CN(C)c1ccc2nc3ccc(N(C)C)cc3[s+]c2c1 [METHYLENE BLUE ANHYDROUS]
- IC50 [2]: 83 µM

Structure (SMILES): CC(N)C(=O)OC(C)(C)Cc1ccc(Cl)cc1 (stereo unspecified) [ALAPROCLATE]
- EC50 [3]: 2 µM

Structure (SMILES): O=C1C(Cl)=C(N[C@@H](Cc2c[nH]c3ccccc23)C(=O)O)C(=O)c2ccccc21
- inhibition at 750 µg/mL (Drosophila): 70%

Structure (SMILES): CCn1c(=O)/c(=C2\Sc3ccccc3N2C)s/c1=C\c1cccc[n+]1C
- EC50 [1]: 0.9 µM
- inhibition (SK-N-BE(2)-M17): 75%
- inhibition (HeLa C3): 75%
- EC50 [4]: 1.5 µM

Structure (SMILES): CCn1c(=O)/c(=C2\Sc3cc(C(F)(F)F)ccc3N2C)s/c1=C\c1ccccn1
- Activity [7]: 50%

Continued, values first:

- EC50 [1]: 8 µM
Structure (SMILES): CCn1c(=O)/c(=C2\Sc3ccccc3N2C)s/c1=C\c1cccc[n+]1CC

- inhibition (Homo sapiens): > 80%
Structure (SMILES): CN(C)c1ccc2nc3ccc(=[N+](C)C)cc-3sc2c1

- inhibition (Homo sapiens): > 80%
- IC50 [2]: 11 µM
Structure (SMILES): CNc1ccc2nc3ccc(N)cc3[s+]c2c1 [AZURE C]

- Cmax [5]: 1.5 ng/mg
- Tmax [6]: 30 min
Structure (SMILES): CCNC1=NC(c2ccc(F)cc2)NC(=O)N1 (stereo unspecified)

- inhibition (Homo sapiens): > 80%
- IC50 [2]: 12 µM
Structure (SMILES): O=c1c(O)c(-c2cc(O)c(O)c(O)c2)oc2cc(O)cc(O)c12 [MYRICETIN]
